Results: publication PMC6702965, “Inhibition of Porcine Viruses by Different Cell-Targeted Antiviral Drugs” (Frontiers in Microbiology, 2019)
Read-outs that look alike come from different tables or passages of the source.

Legend:
[1] = test system: ASFV Ba71V; assay: microbe, parasite or virus in culture; type: cell-based, African swine fever virus; settings: for IC50: African swine fever virus
[2] = test system: ASFV isolate E70; assay: microbe, parasite or virus in culture; type: cell-based; settings: African swine fever virus, COS, read-out: IC50 on virus yield
[3] = test system: ASFV Ba71V; type: cell-based, African swine fever virus
[4] = test system: FMDV; design: species or system foot and mouth disease virus
[5] = MTT cell viability assay; settings: African green monkey, COS cells
[6] = MTT cell viability assay; settings: hamster, BHK cells
[7] = test system: ASFV Ba71V; type: cell-based, African swine fever virus; remark: listed apart in the source
[8] = test system: ASFV; design: species or system African swine fever virus
[9] = MTT cell viability assay; settings: African green monkey, Vero cells
[10] = MTT cell viability assay; settings: pig, IBRS-2 cells
[11] = test system: VSV; settings: cited from earlier work
[12] = test system: FMDV; settings: cited from earlier work
[13] = test system: SVDV; settings: ref Vazquez-Calvo et al., 2011; cited from earlier work
[14] = test system: FMDV C-S8; type: cell-based, foot and mouth disease virus
[15] = test system: FMDV C-S8; settings: mouse, in vivo
[16] = test system: VSV Indiana; assay: microbe, parasite or virus in culture; type: cell-based, vesicular stomatitis virus
[17] = test system: FMDV C-S8; type: cell-based, foot and mouth disease virus; remark: listed apart in the source
[18] = test system: ASFV Ba71V; settings: cited from earlier work
[19] = test system: FMDV C-S8; type: cell-based, foot and mouth disease virus; remark: listed apart in the source
[20] = C57, mouse, in vivo
[21] = test system: SVDV SP93; assay: microbe, parasite or virus in culture; type: cell-based, swine vesicular disease virus
[22] = test system: FMDV C-S8; design: species or system C57 mice; settings: mouse, in vivo
[23] = test system: FMDV O-UK; assay: microbe, parasite or virus in culture; type: cell-based, foot and mouth disease virus
[24] = test system: FMDV C-S8; assay: microbe, parasite or virus in culture; type: cell-based, foot and mouth disease virus
[25] = read-out: IC50 on ASFV production

C/C=C/C/C=C/CCC(=O)[C@H]1O[C@H]1C(N)=O [CRL, cerulenin]
IC50 [1, 25]: 9 µM
IC50 [2]: 3 µM
Effect of time of addition on virus yield [3]: recovery of virus productivity was observed when CRL was added as early as 0 h after infection
Direct virucidal effect (virotoxicity) [4]: no direct toxicity
CC50 at 24 h [5]: 60 µM
CC50 at 24 h [6]: 60 µM
Expression of early virus protein p32 [7]: very low expression
Expression of late ASFV proteins (p17, p12) [7]: No late ASFV proteins
Direct virucidal effect (virotoxicity) [8]: no direct toxicity
CC50 at 24 h [9]: 45 µM
CC50 at 24 h [10]: 40 µM

CCCC(CCC)C(=O)O [VPA, valproic acid]
IC50 [1, 25]: 2500 to 3000 µM
IC50 [2]: 2500 µM
Susceptibility of infection to the drug [11]: susceptible
Effect of time of addition on virus yield [3]: gradual recovery of virus yields
Direct virucidal effect (virotoxicity) [4]: no direct toxicity
Susceptibility of infection to the drug [12]: not affected
Susceptibility of infection to the drug [13]: not affected
Expression of early virus protein p32 [7]: very low expression
Expression of late ASFV proteins (p17, p12) [7]: No late ASFV proteins
Direct virucidal effect (virotoxicity) [8]: no direct toxicity
CC50 at 24 h [9]: 50000 µM

CCCCCCCCCCCCOC(=O)c1cc(O)c(O)c(O)c1 [LG, lauryl gallate]
Virus yield reduction [1]: about 3 log.u.
IC50 ([1]; COS, 24 h, read-out: IC50 on virus yield): 0.4 µM
IC50 ([1]; Vero, 24 h, read-out: IC50 on virus yield): 1 µM
IC50 [2]: 2 µM
Amount of intracellular FMDV RNA [14]: not affected
Extracellular virus (RNA) [14]: significantly reduced
Positive strand viral RNA synthesis [14]: transiently inhibited
Body weight [15]: lower weights
Protection against FMDV challenge [15]: no protection
Survival rate [15]: 70%
Reduction of virus productivity [16]: 2 log.u.
IC50 ([16]; Vesicular stomatitis virus, BHK-21, read-out: IC50 on virus yield): 900 nM
Direct virucidal effect (virotoxicity) [4]: no direct toxicity
Expression of structural (VP1) and non-structural (3C) FMDV proteins [17]: significantly reduced
CC50 at 24 h [5]: 33 µM
CC50 at 24 h [6]: 75 µM
Time of LG addition up to which virus production was inhibited [18]: up to 5 h.p.i.
Time of LG addition up to which virus productivity was blocked [19]: up to 7 h.p.i.
Non-toxic working concentrations [20]: up to 200 mg/kg
Reduction of virus productivity [21]: 1 log.u.
IC50 ([21]; Enterovirus B, read-out: IC50 on virus yield): 1700 nM
Viral RNA copies (VRC) in blood, spleen, lung, heart and thymus [22]: significant reduction
Direct virucidal effect (virotoxicity) [8]: no direct toxicity
CC50 at 24 h [9]: 45 µM
Decrease in virus production [23]: at least 1 log.u.
IC50 ([23]; Foot-and-mouth disease virus, read-out: IC50 on virus yield): 700 nM
CC50 at 24 h [10]: 30 µM
Decrease in virus production [24]: at least 1 log.u.
Reduction of virus yield [24]: up to 2 log.u
IC50 ([24]; Foot-and-mouth disease virus, BHK-21, read-out: IC50 on virus yield): 200 to 2500 nM

CCCOC(=O)c1cc(O)c(O)c(O)c1 [PG, propyl gallate]
Inhibition of FMDV growth [24]: Neither G nor PG inhibited FMDV growth

CCCCCCCCOC(=O)c1cc(O)c(O)c(O)c1 [OG, octyl gallate]
Effect on ASFV infection [1]: inhibitory effect
Reduction of virus yields [24]: 2 log.u.

O=C(O)c1cc(O)c(O)c(O)c1 [G, gallic acid]
Inhibition of FMDV growth [24]: Neither G nor PG inhibited FMDV growth
